These results are taken from ChEMBL document CHEMBL2074557 (Drug Metab Dispos, 1999).

This data set concerns the target ATP-dependent translocase ABCB1 (Mus musculus, UniProt P21447). In words: TP_TRANSPORTER: increase in plasma concentration in PGP(-/-) mouse. The class given is functional, organism-based. Particulars: in vivo.

Chain of ATP-dependent translocase ABCB1 (P21447 whole entry): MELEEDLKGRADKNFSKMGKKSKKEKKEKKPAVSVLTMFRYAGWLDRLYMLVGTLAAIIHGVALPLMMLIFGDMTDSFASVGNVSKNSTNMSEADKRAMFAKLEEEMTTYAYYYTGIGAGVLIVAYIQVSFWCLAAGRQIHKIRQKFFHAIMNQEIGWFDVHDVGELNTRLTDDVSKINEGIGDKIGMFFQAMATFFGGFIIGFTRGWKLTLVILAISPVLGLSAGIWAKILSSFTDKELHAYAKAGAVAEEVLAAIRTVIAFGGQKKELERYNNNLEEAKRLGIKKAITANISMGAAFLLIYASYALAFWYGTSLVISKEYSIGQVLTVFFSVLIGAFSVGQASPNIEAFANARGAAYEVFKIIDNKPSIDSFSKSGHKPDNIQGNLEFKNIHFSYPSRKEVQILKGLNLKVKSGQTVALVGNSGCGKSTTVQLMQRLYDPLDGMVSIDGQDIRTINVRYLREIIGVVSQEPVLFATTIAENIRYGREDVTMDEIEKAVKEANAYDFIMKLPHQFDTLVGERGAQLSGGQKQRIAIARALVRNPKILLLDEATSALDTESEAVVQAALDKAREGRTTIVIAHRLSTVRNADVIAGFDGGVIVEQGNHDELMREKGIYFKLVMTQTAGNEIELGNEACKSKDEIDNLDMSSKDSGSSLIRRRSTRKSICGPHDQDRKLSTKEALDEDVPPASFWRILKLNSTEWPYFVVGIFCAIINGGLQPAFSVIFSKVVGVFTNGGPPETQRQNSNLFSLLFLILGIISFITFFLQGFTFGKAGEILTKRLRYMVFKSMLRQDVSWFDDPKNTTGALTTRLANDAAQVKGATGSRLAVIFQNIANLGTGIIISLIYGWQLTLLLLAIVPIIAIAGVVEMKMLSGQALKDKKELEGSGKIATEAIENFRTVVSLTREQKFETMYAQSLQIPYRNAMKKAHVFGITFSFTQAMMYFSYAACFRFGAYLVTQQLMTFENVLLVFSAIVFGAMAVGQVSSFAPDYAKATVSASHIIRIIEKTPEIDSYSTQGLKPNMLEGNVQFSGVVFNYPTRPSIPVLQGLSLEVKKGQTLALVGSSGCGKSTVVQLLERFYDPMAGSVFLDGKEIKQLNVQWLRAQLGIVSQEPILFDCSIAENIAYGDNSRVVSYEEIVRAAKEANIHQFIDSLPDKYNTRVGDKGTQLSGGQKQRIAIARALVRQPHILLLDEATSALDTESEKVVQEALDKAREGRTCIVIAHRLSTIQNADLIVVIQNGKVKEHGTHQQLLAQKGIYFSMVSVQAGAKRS

For IVERMECTIN, the Activity result is “substrate [+]”.
